Assay results from patent US11685714B2, “Prodrugs of cytotoxic active agents having enzymatically cleavable groups” (BAYER PHARMA AKTIENGESELLSCHAFT, priority 2016, dated 2023).
Structures can show the parent of a compound that is named as a salt.

What was measured:
Format in all cases: cell-based
[1] = test system: SK-HEP-1: human liver cell cancer line; assay: MTT assay on SK-HEP-1; details: SK-HEP1, 96 h, growth inhibition, 96 h incubation
Experimental: (§1) The analysis of the cytotoxic effects of the ADCs was carried out with various cell lines:
(§2) The cells were cultivated by the standard method as stated by the American Tissue Culture Collection (ATCC) or the Leibniz-lnstitut DSMZ-Deutsche Sammlung von Mikroorganismen und Zellkulturen GmbH (DSMZ) for the cell lines in question.
(§3) The cells were then incubated in an incubator at 37° C. and 5% carbon dioxide. […] To this end, the MTT reagent was incubated with the cells for 4 h, followed by lysis of the cells overnight by addition of the detergent. […] The measured data were used to calculate the ICo50 of the growth inhibition using the DRC (dose response curve). The proliferation of cells which were not treated with test substance but were otherwise identically treated was defined as the 100% figure.

[2] = test system: NCI-H292: human mucoepidermoid lung carcinoma cells; assay: MTT assay on NCI-H292; details: 96 h incubation
Experimental: as §1, §2, §3

[3] = test system: KPL4: human breast cancer cell line; assay: MTT assay on KPL4; details: 96 h incubation
Experimental: as §1, §2, §3

[4] = NCI-H292, 96 h, growth inhibition

CC(C)(C)[C@H](c1cc(-c2cc(F)ccc2F)cn1Cc1ccccc1)N(CC[C@H](N)C(=O)NCCNC(=O)CNC(=O)CC(SC[C@H](N)C(=O)O)C(=O)O)C(=O)CO (single isomer, unassigned) [Example M13]
IC50 [1]: 68.1 nM | IC50 [2, 4]: 152 nM | IC50 ([3]; KPL4, 96 h, growth inhibition): 169 nM

CC(C)(C)[C@H](c1cc(-c2cc(F)ccc2F)cn1Cc1ccccc1)N(CC[C@H](N)C(=O)NCCNC(=O)CNC(=O)CC(SC[C@H](N)C(=O)O)C(=O)O)C(=O)CO (single isomer, unassigned) [Example M14]
IC50 [1]: 94.3 nM | IC50 [2, 4]: 174 nM | IC50 ([3]; KPL4, 96 h, growth inhibition): 177 nM

CC(C)(C)[C@H](c1cc(-c2cc(F)ccc2F)cn1Cc1ccccc1)N(CC[C@H](N)C(=O)NCCNC(=O)CNC(=O)C(CC(=O)O)SC[C@H](N)C(=O)O)C(=O)CO (single isomer, unassigned) [Example M15]
IC50 [1]: 49.8 nM | IC50 [2, 4]: 133 nM | IC50 ([3]; KPL4, 96 h, growth inhibition): 169 nM

CC(C)(C)[C@H](c1cc(-c2cc(F)ccc2F)cn1Cc1ccccc1)N(CC[C@H](N)C(=O)NCCNC(=O)CN1C(=O)CC(SC[C@H](N)C(=O)O)C1=O)C(=O)CO (stereo partly drawn) [Example M1, S-[1-(2-{[2-({(2S)-2-Amino-4-[{(1R)-1-[1-benzyl-4-(2,5-difluorophenyl)-1H-pyrrol-2-yl]-2,2-dimethylpropyl}(glycoloyl)amino]butanoyl}amino)ethyl]amino}-2-oxoethyl)-2,5-dioxopyrrolidin-3-yl]-L-cysteine/trifluoroacetic acid (1:1)]
IC50 [2, 4]: 500 nM | IC50 ([3]; KPL4, 96 h, growth inhibition): 500 nM

CC(C)(C)[C@H](c1cc(-c2cc(F)ccc2F)cn1Cc1ccccc1)N(CC[C@H](N)C(=O)NCCOCCN1C(=O)CC(SC[C@H](N)C(=O)O)C1=O)C(=O)CO (stereo partly drawn) [Example M4, S-(1-{2-[2-({(2S)-2-Amino-4-[{(1R)-1-[1-benzyl-4-(2,5-difluorophenyl)-1H-pyrrol-2-yl]-2,2-dimethylpropyl}(glycoloyl)amino]butanoyl}amino)ethoxy]ethyl}-2,5-dioxopyrrolidin-3-yl)-L-cysteine/trifluoroacetic acid (1:1)]
IC50 [1]: 34.5 nM | IC50 [2, 4]: 44.3 nM | IC50 ([3]; KPL4, 96 h, growth inhibition): 176 nM

CC(C)(C)[C@H](c1cc(-c2cc(F)ccc2F)cn1Cc1ccccc1)N(CC[C@H](N)C(=O)NCCNC(=O)CSC[C@H](N)C(=O)O)C(=O)CO [Example M7, S-(2-{[2-({(2S)-2-Amino-4-[{(1R)-1-[1-benzyl-4-(2,5-difluorophenyl)-1H-pyrrol-2-yl]-2,2-dimethylpropyl}(glycoloyl)amino]butanoyl}amino)ethyl]amino}-2-oxoethyl)-L-cysteine/trifluoroacetic acid (1:1)]
IC50 [2, 4]: 21.2 nM | IC50 ([3]; KPL4, 96 h, growth inhibition): 92.3 nM

CC(C)(C)[C@H](c1cc(-c2cc(F)ccc2F)cn1Cc1ccccc1)N(CC[C@H](N)C(=O)NCCNC(=O)CNC(=O)CC1SC[C@@H](C(=O)O)NC1=O)C(=O)CO (stereo partly drawn) [Example M08, (3R)-6-{(11 S,15R)-11-Amino-15-[1-benzyl-4-(2,5-difluorophenyl)-1H-pyrrol-2-yl]-14-glycoloyl-16,16-dimethyl-2,5,10-trioxo-3,6,9,14-tetraazaheptadec-1-yl}-5-oxothiomorpholine-3-carboxylic acid/trifluoroacetic acid (1:1)]
IC50 ([3]; KPL4, 96 h, growth inhibition): 487 nM

CC(C)(C)[C@H](c1cc(-c2cc(F)ccc2F)cn1Cc1ccccc1)N(CCCN)C(=O)CO [Example M9, N-(3-Aminopropyl)-N-{(1R)-1-[1-benzyl-4-(2,5-difluorophenyl)-1H-pyrrol-2-yl]-2,2-dimethylpropyl}-2-hydroxyacetamide]
IC50 ([2]; NCI-H292, growth inhibition): 0.27 nM | IC50 ([3]; KPL4, growth inhibition): 0.514 nM

CC(C)(C)[C@H](c1cc(-c2cc(F)ccc2F)cn1Cc1ccccc1)N(CCCN)C(=O)CSC[C@H](N)C(=O)O [Example M11, S-{2-[(3-Aminopropyl){(1R)-1-[1-benzyl-4-(2,5-difluorophenyl)-1H-pyrrol-2-yl]-2,2-dimethylpropyl}amino]-2-oxoethyl}-L-cysteine/trifluoroacetic acid (1:2)]
IC50 [1]: 0.189 nM | IC50 [2, 4]: 0.0432 nM

CC(C)(C)[C@H](c1cc(-c2cc(F)ccc2F)cn1Cc1ccccc1)N(CCCN)C(=O)CSC[C@H](NC(=O)CCC(=O)O)C(=O)O [Example M12, 4-{[(1R)-2-({2-[(3-Aminopropyl){(1R)-1-[1-benzyl-4-(2,5-difluorophenyl)-1H-pyrrol-2-yl]-2,2-dimethylpropyl}amino]-2-oxoethyl}sulphanyl)-1-carboxyethyl]amino}-4-oxobutanoic acid/trifluoroacetic acid (1:1)]
IC50 [1]: 21.1 nM | IC50 [2, 4]: 33 nM

CC(C)(C)[C@H](c1cc(-c2cc(F)ccc2F)cn1Cc1ccccc1)N(CC[C@H](N)C(=O)O)C(=O)CO [Example M17, (2S)-2-Amino-4-[{(1R)-1-[1-benzyl-4-(2,5-difluorophenyl)-1H-pyrrol-2-yl]-2,2-dimethylpropyl}(glycoloyl)amino]butanoic acid hydrochloride (1:1)]
IC50 [2, 4]: 7.35 nM

CC(C)(C)[C@H](c1cc(-c2cc(F)ccc2F)cn1Cc1ccccc1)N(CC[C@H](N)C(=O)NCCNC(=O)CC[C@H](N)C(=O)O)C(=O)CO [Example M18, N-[2-({(2S)-2-Amino-4-[{(1R)-1-[1-benzyl-4-(2,5-difluorophenyl)-1H-pyrrol-2-yl]-2,2-dimethylpropyl}(glycoloyl)amino]butanoyl}amino)ethyl]-L-glutamine/trifluoroacetic acid (1:1)]
IC50 [2, 4]: 35.5 nM

CC(C)(C)[C@H](c1cc(-c2cc(F)ccc2F)cn1Cc1ccccc1)N(CC[C@H](N)C(=O)NCCC(=O)NCCCC[C@H](N)C(=O)O)C(=O)CO [Example M19, N^6—(N-{(2S)-2-Amino-4-[{(1R)-1-[1-benzyl-4-(2,5-difluorophenyl)-1H-pyrrol-2-yl]-2,2-dimethylpropyl}(glycoloyl)amino]butanoyl}-beta-alanyl)-L-lysine/trifluoroacetic acid (1:1)]
IC50 [2, 4]: 121 nM

CC(C)(C)[C@H](c1cc(-c2cc(F)ccc2F)cn1Cc1ccccc1)N(CCCN)C(=O)CSC[C@H](NC(=O)CCOCCOCCOCCOCCNC(=O)CNC(=O)CC(SC[C@H](N)C(=O)O)C(=O)O)C(=O)O (stereo partly drawn) [Example M20, (1R,4R,27R,33R)-1-Amino-32-(3-aminopropyl)-33-[1-benzyl-4-(2,5-difluorophenyl)-1H-pyrrol-2-yl]-34,34-dimethyl-6,9,25,31-tetraoxo-13,16,19,22-tetraoxa-3,29-dithia-7,10,26,32-tetraazapentatriacontane-1,4,27-tricarboxylic acid/trifluoroacetic acid (1:2)]
IC50 [1]: 181 nM | IC50 [2, 4]: 149 nM | IC50 ([3]; KPL4, 96 h, growth inhibition): 213 nM

CC(C)(C)[C@H](c1cc(-c2cc(F)ccc2F)cn1Cc1ccccc1)N(CC[C@H](N)C(=O)NCCC(=O)N[C@@H](CCC(=O)O)C(=O)O)C(=O)CO [Example M23, N-{(2S)-2-Amino-4-[{(1R)-1-[1-benzyl-4-(2,5-difluorophenyl)-1H-pyrrol-2-yl]-2,2-dimethylpropyl}(glycoloyl)amino]butanoyl}-beta-alanyl-L-glutamic acid/trifluoroacetic acid (1:1)]
IC50 [1]: 500 nM | IC50 [2, 4]: 500 nM | IC50 ([3]; KPL4, 96 h, growth inhibition): 500 nM

CC(C)(C)[C@H](c1cc(-c2cc(F)ccc2F)cn1Cc1ccccc1)N(CC[C@H](N)C(=O)NCCC(=O)N[C@H](CCC(=O)O)C(=O)O)C(=O)CO [Example M24, N-{(2S)-2-Amino-4-[{(1R)-1-[1-benzyl-4-(2,5-difluorophenyl)-1H-pyrrol-2-yl]-2,2-dimethylpropyl}(glycoloyl)amino]butanoyl}-beta-alanyl-D-glutamic acid/trifluoroacetic acid (1:1)]
IC50 [1]: 57.3 nM | IC50 [2, 4]: 167 nM | IC50 ([3]; KPL4, 96 h, growth inhibition): 500 nM

CC(C)(C)[C@H](c1cc(-c2cc(F)ccc2F)cn1Cc1ccccc1)N(CC[C@H](N)C(=O)NCCNC(=O)CNC(=O)C(CC(=O)O)SC[C@H](N)C(=O)O)C(=O)CO (stereo partly drawn) [Example M27, 4-[(2-{[2-({(2S)-2-Amino-4-[{(1R)-1-[1-benzyl-4-(2,5-difluorophenyl)-1H-pyrrol-2-yl]-2,2-dimethylpropyl}(glycoloyl)amino]butanoyl}amino)ethyl]amino}-2-oxoethyl)amino]-3-{[(2R)-2-amino-2-carboxyethyl]sulphanyl}-4-oxobutanoic acid/trifluoroacetic acid (1:1)]
IC50 [1]: 89 nM | IC50 [2, 4]: 276 nM
